Laboratory results published in the supplement of paper PMC11451515.

Assays:
Settings in all cases: 48 h
SEM cells [1] = experiment: AUC of viability dose-response curve (% viability x log10 dose units); higher = less sensitive
Summary of the method: (§1)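 Library compounds in DMSO were applied for 48 h at 37°C at 11 threefold doses (47 μM to 0.79 nM) to medium-adapted leukemia cells in 1536-well plates holding 500 or 1000 cells/well. Luminescence from CellTiter-Glo One was normalised plate by plate against DMSO and cell-free wells. Area under the curve came from trapezoidal integration of a log-logistic fit, after scaling curves that rose above full viability and discarding those that failed quality control. The fit had four parameters and used log10 doses.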

NOMO1 [2] = experiment: as above
Summary of the method: as §1

P12-Ichikawa [3] = experiment: as above
Summary of the method: as §1

SEM cells [4] = experiment: cell viability relative to DMSO control; higher = less cytotoxic
Summary of the method: (§2)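 Before seeding, each leukemia line was adapted for at least four passages in each medium. NOMO1 or SEM cells (500 cells/well) and P12-Ichikawa cells (1000 cells/well) went into 1536-well plates at 5 μl, then received library compounds in DMSO by pin dosing across 11 threefold concentrations, 47 μM to 0.79 nM. Readout was CellTiter-Glo One luminescence after 48 h at 37°C, and viability is given as a per-plate percentage of DMSO wells, with cell-free wells as background.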

NOMO1 [5] = experiment: as above
Summary of the method: as §2

P12-Ichikawa [6] = experiment: as above
Summary of the method: as §2

CC(C)Oc1cc(Nc2nc(N[C@@H](C)c3ccc(F)cn3)ncc2Cl)n[nH]1
AUC of viability dose-response curve
Settings | NOMO1 [2] | P12-Ichikawa [3] | SEM cells [1]
HPLM + 10% dialyzed FBS | 449 | 344 | 319
RPMI 5 mM glucose + 10% FBS | 409 | 349 | 310
RPMI 5 mM glucose + 10% dialyzed FBS | 412 | 366 | 291

cell viability [%]
Settings | NOMO1 [5] | P12-Ichikawa [6] | SEM cells [4]
HPLM + 10% dialyzed FBS, 0.000781 µM | 104 | 111 | 106
HPLM + 10% dialyzed FBS, 0.00234 µM | 113 | 111 | 103
HPLM + 10% dialyzed FBS, 0.00702 µM | 120 | 116 | 90.3
HPLM + 10% dialyzed FBS, 0.0211 µM | 114 | 112 | 102
HPLM + 10% dialyzed FBS, 0.0632 µM | 99 | 110 | 96.3
HPLM + 10% dialyzed FBS, 0.19 µM | 96.8 | 115 | 80.5
HPLM + 10% dialyzed FBS, 0.569 µM | 127 | 106 | 50.5
HPLM + 10% dialyzed FBS, 1.71 µM | 94.1 | 13.3 | 34.6
HPLM + 10% dialyzed FBS, 5.12 µM | 101 | 14.7 | 26
HPLM + 10% dialyzed FBS, 15.4 µM | 108 | 29.6 | 22.1
HPLM + 10% dialyzed FBS, 46.1 µM | 92.4 | 41.1 | 25.3
RPMI 5 mM glucose + 10% FBS, 0.000781 µM | 107 | 104 | 109
RPMI 5 mM glucose + 10% FBS, 0.00234 µM | 100 | 92.9 | 83.1
RPMI 5 mM glucose + 10% FBS, 0.00702 µM | 111 | 105 | 96
RPMI 5 mM glucose + 10% FBS, 0.0211 µM | 110 | 106 | 95.6
RPMI 5 mM glucose + 10% FBS, 0.0632 µM | 104 | 108 | 108
RPMI 5 mM glucose + 10% FBS, 0.19 µM | 104 | 110 | 81.2
RPMI 5 mM glucose + 10% FBS, 0.569 µM | 116 | 104 | 60.3
RPMI 5 mM glucose + 10% FBS, 1.71 µM | 53.7 | 15.2 | 21.9
RPMI 5 mM glucose + 10% FBS, 5.12 µM | 60.4 | 17 | 19.2
RPMI 5 mM glucose + 10% FBS, 15.4 µM | 68 | 27.5 | 14.8
RPMI 5 mM glucose + 10% FBS, 46.1 µM | 72.6 | 40 | 16.2
RPMI 5 mM glucose + 10% dialyzed FBS, 0.000781 µM | 101 | 113 | 84.9
RPMI 5 mM glucose + 10% dialyzed FBS, 0.00234 µM | 109 | 113 | 98
RPMI 5 mM glucose + 10% dialyzed FBS, 0.00702 µM | 115 | 108 | 100
RPMI 5 mM glucose + 10% dialyzed FBS, 0.0211 µM | 100 | 114 | 114
RPMI 5 mM glucose + 10% dialyzed FBS, 0.0632 µM | 134 | 115 | 83
RPMI 5 mM glucose + 10% dialyzed FBS, 0.19 µM | 110 | 116 | 67.9
RPMI 5 mM glucose + 10% dialyzed FBS, 0.569 µM | 110 | 105 | 43.4
RPMI 5 mM glucose + 10% dialyzed FBS, 1.71 µM | 61.6 | 27.9 | 26.3
RPMI 5 mM glucose + 10% dialyzed FBS, 5.12 µM | 57.6 | 30.5 | 17.9
RPMI 5 mM glucose + 10% dialyzed FBS, 15.4 µM | 68.9 | 46.6 | 14.9
RPMI 5 mM glucose + 10% dialyzed FBS, 46.1 µM | 85.9 | 55.5 | 16.2

CCOc1ccc(Nc2nc(-c3c(C)nc4ccccn34)cs2)cc1
AUC of viability dose-response curve
Settings | NOMO1 [2] | P12-Ichikawa [3] | SEM cells [1]
HPLM + 10% dialyzed FBS | 270 | 225 | 232
RPMI 5 mM glucose + 10% FBS | 252 | 232 | 213
RPMI 5 mM glucose + 10% dialyzed FBS | 281 | 271 | 263

cell viability [%]
Settings | NOMO1 [5] | P12-Ichikawa [6] | SEM cells [4]
HPLM + 10% dialyzed FBS, 0.000781 µM | 109 | 117 | 98.8
HPLM + 10% dialyzed FBS, 0.00234 µM | 118 | 116 | 105
HPLM + 10% dialyzed FBS, 0.00702 µM | 119 | 116 | 111
HPLM + 10% dialyzed FBS, 0.0211 µM | 111 | 103 | 89.9
HPLM + 10% dialyzed FBS, 0.0632 µM | 40 | 53.8 | 38.5
HPLM + 10% dialyzed FBS, 0.19 µM | 35.7 | 19.3 | 22.3
HPLM + 10% dialyzed FBS, 0.569 µM | 33.4 | 26.3 | 20.4
HPLM + 10% dialyzed FBS, 1.71 µM | 38.7 | 24.1 | 21.1
HPLM + 10% dialyzed FBS, 5.12 µM | 38.8 | 16.3 | 20.1
HPLM + 10% dialyzed FBS, 15.4 µM | 45.7 | 14.5 | 23.5
HPLM + 10% dialyzed FBS, 46.1 µM | 40.4 | 9.9 | 22.9
RPMI 5 mM glucose + 10% FBS, 0.000781 µM | – | 116 | 114
RPMI 5 mM glucose + 10% FBS, 0.00234 µM | – | 121 | 107
RPMI 5 mM glucose + 10% FBS, 0.00702 µM | – | 129 | 112
RPMI 5 mM glucose + 10% FBS, 0.0211 µM | – | 109 | 94.8
RPMI 5 mM glucose + 10% FBS, 0.0632 µM | – | 72.8 | 46.8
RPMI 5 mM glucose + 10% FBS, 0.19 µM | – | 16.7 | 14.5
RPMI 5 mM glucose + 10% FBS, 0.569 µM | – | 19.6 | 15.6
RPMI 5 mM glucose + 10% FBS, 1.71 µM | – | 19.6 | 13.3
RPMI 5 mM glucose + 10% FBS, 5.12 µM | – | 22.3 | 15.7
RPMI 5 mM glucose + 10% FBS, 15.4 µM | – | 17.5 | 14.3
RPMI 5 mM glucose + 10% FBS, 46.1 µM | – | 9.84 | 10.9
RPMI 5 mM glucose + 10% dialyzed FBS, 0.000781 µM | 119 | 104 | 116
RPMI 5 mM glucose + 10% dialyzed FBS, 0.00234 µM | 117 | 116 | 94.7
RPMI 5 mM glucose + 10% dialyzed FBS, 0.00702 µM | 128 | 110 | 96.5
RPMI 5 mM glucose + 10% dialyzed FBS, 0.0211 µM | 120 | 108 | 110
RPMI 5 mM glucose + 10% dialyzed FBS, 0.0632 µM | 112 | 94.2 | 91.1
RPMI 5 mM glucose + 10% dialyzed FBS, 0.19 µM | 33.2 | 28.9 | 26.8
RPMI 5 mM glucose + 10% dialyzed FBS, 0.569 µM | 31.4 | 29.6 | 24.3
RPMI 5 mM glucose + 10% dialyzed FBS, 1.71 µM | 30.2 | 30.3 | 20.7
RPMI 5 mM glucose + 10% dialyzed FBS, 5.12 µM | 31.4 | 27.3 | 19.1
RPMI 5 mM glucose + 10% dialyzed FBS, 15.4 µM | 35.9 | 28.1 | 19.7
RPMI 5 mM glucose + 10% dialyzed FBS, 46.1 µM | 32.1 | 14.8 | 18.8
